System: gelatinase B (MMP-9)
Experiment: Gelatin zymography of conditioned media of TSU PR1 and MAT LyLu cells, MMP-9
Type: cell-based
Conditions: 48 hours, serum-free medium
Method: Next we examined whether CMT-3 and doxycycline differentially affect the production of two major classes of gelatinases: gelatinase A (MMP-2) and gelatinase B (MMP-9). Confluent cultures of TSU PR1 and MAT LyLu cells were incubated with various concentrations of doxycycline and CMT-3 for 48 hours in serum-free medium. The conditioned media were then analyzed for MMPs by zymography as described below.
Conditioned media were collected from the cultures that had been treated with doxycycline or CMT-3 for 2 days. Media were then incubated with SDS-gel electrophoresis sample buffer for 30 min at room temperature, and then analyzed by gel electrophoresis on SDS-polyacrylamide gel (8%) containing gelatin (1 mg/mL). Following electrophoresis, the gels were washed twice with 0.25% TRITON® X100 for 30 min each, and incubated for 18 hr at 37° C. in an MMP digestion buffer comprising 20 mM Tris-HCl, pH 7.4, containing 30 mM NaCl, 1 mM PMSF, 10 mM CaCl2, 2 μM ZnSO4, 0.005% Brij35, and 0.02 NaN3 (Lokeshwar 1993a). After incubation, the gels were briefly rinsed in distilled water and stained with 0.25% Coomassie brilliant blue R250 prepared in 40% isopropanol solution for 1 hr. Gels were destained with 7% acetic acid. the locations of MMPs in the gels were visible as clear areas on a blue background, indicative of digested gelatin.

SMILES: NC(=O)C1=C(O)CC2CC3Cc4cccc(O)c4C(=O)C3=C(O)C2(O)C1=O (stereo not shown) [CMT-3, 6-demethyl-6-deoxy-4-de(dimethylamino)tetracycline]
- MMP-9 levels in conditioned media (zymography): decreased MMP-2 and MMP-9 levels at a lower concentration than did doxycycline

— patent US6429204B1, “Method of inhibiting cancer growth” (University of Miami, priority 1997, dated 2002)
